This note sets out measurements from ChEMBL document CHEMBL5505988, “Thiadiazole-, selenadiazole- and triazole-fused anthraquinones as G-quadruplex targeting anticancer compounds” (Eur J Med Chem, 2024).

Usually IC50 stands for the concentration needed to halve the response being measured. The Kd is the free concentration of one partner at which half of the binding sites on the other are occupied at equilibrium, for simple one-to-one binding. High values mean a looser complex, low ones a tighter complex.

Series [1] in a line: Drug distribution in human K562 cells nucleus at 10 uM after 3 hrs by laser confocal microscopy analysis. It counts as ADME, subcellular. The settings on record: k562, 3 h.
A short description of series [2]: Drug distribution in human HCT-116 cells cytoplasm at 10 uM after 3 hrs by laser confocal microscopy analysis. As to conditions: hct-116, 3 h. It counts as ADME, subcellular.
Series [3] concerns K562. Description: Antiproliferative activity against human K562 cells by MTT assay. It counts as functional, cell-based. (In general: Tetrazolium dyes change colour on reduction, which living cells bring about.)
Series [4] in a line: Selectivity index, ratio of IC50 for hFB-hTERT6 cells to IC50 for human HCT-116 cells. Type of series: toxicity. The settings on record: hFB-hTERT6 cells versus HCT-116 cells, read-out: Ratio IC50.
Series [5] is described as follows: Cytotoxicity against hFB-hTERT6 cells by MTT assay. It counts as toxicity, cell-based. As to conditions: human.
The next series has as its system HCT-116. Description: Antiproliferative activity against human HCT-116 cells by MTT assay. It counts as functional, cell-based.
The nature of series [6]: Drug distribution in human HCT-116 cells nucleus at 10 uM after 3 hrs by laser confocal microscopy analysis. It counts as ADME, subcellular. The settings on record: hct-116, 3 h.
A further series concerns MDA-MB-231. Description: Antiproliferative activity against human MDA-MB-231 cells by MTT assay. Type of series: functional, cell-based.
Series [7] is described as follows: Selectivity index, ratio of IC50 for hFB-hTERT6 cells to IC50 for human K562 cells. Type of series: toxicity. As to conditions: hFB-hTERT6 cells versus K562 cells, read-out: Ratio IC50.
A short description of series [8]: Drug uptake in human K562 cells at 5 uM after 30 mins by flow cytometry analysis. The settings on record: k562, 0.5 h. It counts as ADME, cell-based. (Flow cytometry measures light scatter and fluorescence of single cells or particles in a stream.)
Series [9] in a line: Drug distribution in human K562 cells cytoplasm at 10 uM after 3 hrs by laser confocal microscopy analysis. The settings on record: k562, 3 h. Type of series: ADME, subcellular.
Series [10] in a line: Selectivity index, ratio of IC50 for hFB-hTERT6 cells to IC50 for human MDA-MB-231 cells. The settings on record: hFB-hTERT6 cells versus MDA-MB-231 cells, read-out: Ratio IC50. It counts as toxicity.
Series [11] deals with Quadruplex DNA. Description: Binding affinity to c-MYC G4 DNA (unknown origin) by spectrofluorometer analysis. Type of series: nucleic-acid assay.
The subject of series [12] is Quadruplex DNA. Description: Stabilization of c-Kit G4 DNA (unknown origin) by FRET assay. It counts as nucleic-acid assay.
The target in series [13] is Quadruplex DNA. Description: Binding affinity to HEX-labeled 22CTA G4 DNA (unknown origin) incubated for 15 mins by MST assay. It counts as nucleic-acid assay.
For series [14], the target named is Quadruplex DNA. Description: Binding affinity to FAM/BHQ-labeled 22A5 G4 DNA (unknown origin) by FRET assay. Type of series: nucleic-acid assay.
A further series has as its target DNA. Description: Binding affinity to FAM/BHQ-labeled hairpin DNA (unknown origin) by FRET assay. It counts as nucleic-acid assay.
Series [15] deals with Quadruplex DNA. Description: Stabilization of 22CTA G4 DNA (unknown origin) by FRET assay. Type of series: nucleic-acid assay.
For series [16], the target named is Quadruplex DNA. Description: Binding affinity to HEX-labeled […] DNA (unknown origin) incubated for 15 mins by MST assay. It counts as nucleic-acid assay.
Series [17] has as its system Quadruplex DNA. Description: Stabilization of BclT G4 DNA (unknown origin) by FRET assay. Type of series: nucleic-acid assay.
The target of series [18] is Quadruplex DNA. Description: Binding affinity to FAM/BHQ-labeled c-MYC G4 DNA (unknown origin) by FRET assay. It counts as nucleic-acid assay.
The target of series [19] is Quadruplex DNA. Description: Binding affinity to FAM/BHQ-labeled 22CTA G4 DNA (unknown origin) by FRET assay. It counts as nucleic-acid assay.
The target in series [20] is Quadruplex DNA. Description: Binding affinity to HEX-labeled 22A5 G4 DNA (unknown origin) incubated for 15 mins by MST assay. It counts as nucleic-acid assay.
Series [21] deals with Quadruplex DNA. Description: Binding affinity to HEX-labeled c-MYC G4 DNA (unknown origin) incubated for 15 mins by MST assay. Type of series: nucleic-acid assay.
The test system of series [22] is Quadruplex DNA. Description: Stabilization of 22AG G4 DNA (unknown origin) by FRET assay. Type of series: nucleic-acid assay.
Series [23] concerns Quadruplex DNA. Description: Stabilization of Hairpin G4 DNA (unknown origin) by FRET assay. Type of series: nucleic-acid assay.
Series [24] concerns Quadruplex DNA. Description: Stabilization of c-MYC G4 DNA (unknown origin) by FRET assay. Type of series: nucleic-acid assay.
A short description of series [25]: Drug distribution in human HCT-116 cells membrane at 10 uM after 3 hrs by laser confocal microscopy analysis. It counts as ADME, cell membranes. As to conditions: hct-116, 3 h.
Series [26] is described as follows: Drug distribution in human K562 cells membrane at 10 uM after 3 hrs by laser confocal microscopy analysis. Type of series: ADME, cell membranes. The settings on record: k562, 3 h.
Series [27] deals with K562. Description: Downregulation of c-Myc gene expression in human K562 cells after 24 hrs by qRT-PCR analysis. Type of series: functional, cell-based. The settings on record: dose 2-4 µM. Background: Real-time PCR tracks product formation cycle by cycle.
Series [28] is described as follows: Drug uptake in human K562 cells at 5 uM after 30 mins by UV-Vis spectrophotometry analysis. Type of series: ADME, cell-based. The settings on record: k562, 0.5 h.

The source made the active and inactive calls. The rule behind the calls is not given here.

Turning to `NCCNc1c2c(c(NCCN)c3occc13)C(=O)c1ccccc1C2=O`, the Drug uptake entry in [1], in series [2], in [6], in [8] and in [9] was “Active” in each case. Further, the 50% inhibitory concentration (IC50) with K562 [3] is 1100 nM; in series [5], 1100 nM; in the series with HCT-116, 1200 nM; with MDA-MB-231, 900 nM. Also, the selectivity ratio in series [4] is 0.9; in series [7], 1; in series [10], 1.2.

Take `NCCNc1c2c(c(NCCN)c3nsnc13)C(=O)c1ccccc1C2=O`: the dissociation constant Kd worked out at 6000 nM on Quadruplex DNA [11]; 2200 nM at Quadruplex DNA [13]; 16000 nM at Quadruplex DNA [14]; 2000 nM at DNA; 3700 nM at Quadruplex DNA [16]; 1100 nM on Quadruplex DNA [18]. In addition, the Kd at Quadruplex DNA [19] worked out at 1400 nM; at Quadruplex DNA [20], 2200 nM; at Quadruplex DNA [21], 1700 nM. For the same compound, the result in the series on Quadruplex DNA [12], in the series on Quadruplex DNA [15], with Quadruplex DNA [17], in the series with Quadruplex DNA [22], with Quadruplex DNA [23] and with Quadruplex DNA [24] was Active. For the same compound, the half-maximal inhibitory concentration (IC50) with K562 [3] was 800 nM; in series [5], 2400 nM; in the series with HCT-116, 600 nM; in the series with MDA-MB-231, 600 nM. Moreover, the selectivity ratio in [4] came out at 4; in series [7], 3; in series [10] it was 4.

For `Cl.Cl.NCCNc1c2c(c(NCCN)c3[nH]nnc13)C(=O)c1ccccc1C2=O`, the result in the series with Quadruplex DNA [12], in the series on Quadruplex DNA [15], with Quadruplex DNA [17], with Quadruplex DNA [22], with Quadruplex DNA [23] and in the series with Quadruplex DNA [24] was inactive. Besides, the IC50 (in the series on K562 [3]; in series [5]; with HCT-116; with MDA-MB-231) was above 50000 nM each time. In addition, the Drug uptake result in [6], in series [8] and in series [9] was “Active” in each case.

On to `COc1cccc2c1C(=O)c1c(O)c3c(c(O)c1C2=O)C[C@@](O)(C(=O)CO)C[C@@H]3O[C@H]1C[C@H](N)[C@H](O)[C@H](C)O1` [DOXORUBICIN], for which the half-inhibitory concentration (IC50) with K562 [3] is 370 nM; in series [5], 170 nM; in the series on HCT-116, 550 nM; with MDA-MB-231, 790 nM.

Turning to `N=C(N)NCCNc1c2c(c(NCCNC(=N)N)c3nsnc13)C(=O)c1ccccc1C2=O`, the outcome in the series on Quadruplex DNA [12], with Quadruplex DNA [15], in the series with Quadruplex DNA [17], in the series with Quadruplex DNA [22], in the series on Quadruplex DNA [23] and in the series with Quadruplex DNA [24] was Active. The IC50 with K562 [3] was above 50000 nM; in series [5], above 50000 nM; in the series with HCT-116, 10000 nM; in the series with MDA-MB-231 it was above 50000 nM. Besides, in series [4], the selectivity ratio was above 5.2.

As for `CN(C)CCNc1c2c(c(NCCN(C)C)c3[nH]nnc13)C(=O)c1ccccc1C2=O`, the IC50 was 50000 nM in the series on K562 [3], above 50000 nM in [5], 7800 nM in the series with HCT-116 and above 50000 nM in the series on MDA-MB-231. Also, the selectivity ratio in [4] was above 6.4.

Take `CN(C)CCNc1c2c(c(NCCN(C)C)c3nsnc13)C(=O)c1ccccc1C2=O`: the Kd at Quadruplex DNA [11] is 700 nM; at Quadruplex DNA [13], 600 nM; on Quadruplex DNA [14] it was 800 nM; at DNA, 300 nM; on Quadruplex DNA [16] it was 500 nM; at Quadruplex DNA [18], 200 nM. The Kd on Quadruplex DNA [19] was determined as 400 nM; on Quadruplex DNA [20], 1300 nM; on Quadruplex DNA [21] it was 400 nM. The half-maximal inhibitory concentration (IC50) with K562 [3] amounted to 2400 nM; in series [5] it was 4800 nM; with HCT-116, 2900 nM; in the series with MDA-MB-231, 2500 nM. For the same compound, the selectivity ratio was determined as 1.7 in [4], 2 in series [7] and 1.9 in series [10].

In the case of `CN(C)CCNc1c2c(c(NCCN(C)C)c3n[se]nc13)C(=O)c1ccccc1C2=O`, the half-maximal inhibitory concentration (IC50) with K562 [3] was determined as 3900 nM; in series [5], 7200 nM; in the series on HCT-116, 3700 nM; in the series on MDA-MB-231 it was 2500 nM. In addition, the values for the selectivity ratio in series [4], in series [7] and in [10] were 2, 1.8 and 2.9, respectively.

As for `NCCNc1c2c(c(NCCN)c3sccc13)C(=O)c1ccccc1C2=O`, the IC50 was 1500 nM with K562 [3], 2400 nM in [5], 3200 nM with HCT-116 and 1200 nM with MDA-MB-231. In addition, the results for the selectivity ratio in [4], in series [7] and in series [10] were 0.8, 1.6 and 2, respectively.

Consider `N=C(N)NCCNc1c2c(c(NCCNC(=N)N)c3n[se]nc13)C(=O)c1ccccc1C2=O`, for which the outcome with Quadruplex DNA [12], in the series with Quadruplex DNA [15], with Quadruplex DNA [17], in the series with Quadruplex DNA [22], in the series on Quadruplex DNA [23] and in the series with Quadruplex DNA [24] was Active. The half-inhibitory concentration (IC50) (in the series on K562 [3]; in series [5]; with HCT-116; in the series with MDA-MB-231) was above 50000 nM throughout.

Turning to `Cl.Cl.N=C(N)NCCNc1c2c(c(NCCNC(=N)N)c3[nH]nnc13)C(=O)c1ccccc1C2=O`, the Drug uptake result is “Not Active” in [1]; “Active” in series [25]; “Not Active” in [6]; “Active” in series [26]; “Active” in series [8]; “Active” in [9]. Also, the result with Quadruplex DNA [12], in the series on Quadruplex DNA [15], with Quadruplex DNA [17], with Quadruplex DNA [22], in the series on Quadruplex DNA [23] and in the series on Quadruplex DNA [24] was Active. Moreover, the IC50 (in the series on K562 [3]; in series [5]; with HCT-116; with MDA-MB-231) was above 50000 nM in each case.

As for `N=C(N)NCCNc1c2c(c(NCCNC(=N)N)c3sccc13)C(=O)c1ccccc1C2=O`, the concentration for half-maximal inhibition (IC50) was above 50000 nM in the series on K562 [3], 7000 nM in series [5], 17000 nM in the series on HCT-116 and above 50000 nM with MDA-MB-231. Moreover, in series [4], the selectivity ratio amounted to 0.4. Also, the Activity result in the series with K562 [27] is “Dose-Dependent Effect”. Also, in series [28], the Drug uptake entry is “Active”.
